# Key:
# Huh7 (liver) = test: Cytotoxicity on human cells, automated nuclei counting: Huh7; format: cell-based; details: Huh-7, exposed 24 h to 48 h, 0.1 to 25 μM
# Method: (§1) Cytotoxicity: This method is based on an automated imaging analysis. 4.10^3 cells were cultivated on 96-well plates and left for 24 hours so as to bind, to spread and proliferate.
# (§2) All the cell lines were cultivated in a DMEM or RPMI (Invitrogen) medium. All these media were completed with antibiotics (penicillin-streptomycin) (Lonza) and 10% by volume of fetal calf serum (Invitrogen). The cells were cultivated at 37° C. with 5% of CO2. The treatments with the molecules to be tested were carried out with increasing concentrations. The control experiments were also carried out by using suitable dilutions of DMSO (maximum 1% DMSO).
# Caco (colon) = test: Cytotoxicity on human cells, automated nuclei counting: Caco; format: cell-based; details: exposed 24 h to 48 h, 0.1 to 25 μM
# Method: as §1, §2
# MDA-MB 231 (breast) = test: Cytotoxicity on human cells, automated nuclei counting: MDA-MB 231; format: cell-based; details: MDA-MB 231 cells, exposed 24 h to 48 h, 0.1 to 25 μM
# Method: as §1, §2
# HCT 116 (colon) = test: Cytotoxicity on human cells, automated nuclei counting: HCT 116; format: cell-based; details: HCT 116 cells, exposed 24 h to 48 h, 0.1 to 25 μM
# Method: as §1, §2
# PC3 (prostate) = test: Cytotoxicity on human cells, automated nuclei counting: PC3; format: cell-based; details: PC-3, exposed 24 h to 48 h, 0.1 to 25 μM
# Method: as §1, §2
# NCI (lung) = test: Cytotoxicity on human cells, automated nuclei counting: NCI; format: cell-based; details: exposed 24 h to 48 h, 0.1 to 25 μM
# Method: as §1, §2
# fibroblast = test: Cytotoxicity on human cells, automated nuclei counting: fibroblast; format: cell-based; details: exposed 24 h to 48 h, 0.1 to 25 μM
# Method: as §1, §2
# CDK5/D25 = target: T1, CDK5/D25 (Homo sapiens, UniProt Q00535); test: CDK5 kinase inhibition (33P-ATP, histone H1); format: biochemical; details: buffer C, 30° C., 15 μM ATP, read-out: IC50 μM Kinases CDK5
# T1 construct: made in house
# T1 sequence (Q00535 whole entry): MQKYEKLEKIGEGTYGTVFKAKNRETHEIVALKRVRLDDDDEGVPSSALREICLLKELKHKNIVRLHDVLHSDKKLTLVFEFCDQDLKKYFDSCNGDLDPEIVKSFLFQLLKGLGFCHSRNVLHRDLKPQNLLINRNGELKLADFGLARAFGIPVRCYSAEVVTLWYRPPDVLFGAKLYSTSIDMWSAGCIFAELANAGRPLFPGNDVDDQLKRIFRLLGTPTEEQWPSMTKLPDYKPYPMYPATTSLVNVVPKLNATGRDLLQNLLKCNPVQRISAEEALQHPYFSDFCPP
# T1 sequence (Q15078 99-307 partner limits assumed): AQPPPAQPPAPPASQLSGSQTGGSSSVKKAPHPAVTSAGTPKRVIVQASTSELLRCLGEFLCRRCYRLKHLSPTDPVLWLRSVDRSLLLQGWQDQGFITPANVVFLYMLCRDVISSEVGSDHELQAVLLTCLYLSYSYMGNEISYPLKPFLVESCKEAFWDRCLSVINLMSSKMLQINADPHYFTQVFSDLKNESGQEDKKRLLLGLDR
# Method: The protein kinase inhibition activities of the compounds of the invention are tested according to the following general procedure:
# Buffer C: 60 mM β-glycerophosphate, 15 mM p-nitrophenyl-phosphate, 25 mM Mops (pH 7.2), 5 mM EGTA, 15 mM mgCl2, 1 mM DTT, 1 mM sodium vanadate and 1 mM phenylphosphate.
# The controls were made with suitable dilutions of DMSO.
# ATP (3.000 Ci/mmol.; 10 mCi/mL) in a final volume of 30 μL. After 30 mins of incubation at 30° C., 25 μL of supernatant aliquots were deposited on phosphocellulose Whatman P81 paper pieces of 2.5×3 cm, and after 20 seconds, the filters were washed five times (for at least 5 minutes each time) in a solution of 10 mL of phosphoric acid/1 litre of water. The wet filters were counted in the presence of 1 mL of scintillation fluid ACS (Amersham).
# GSK-3αβ = test: GSK-3 kinase inhibition (GS-1 substrate); details: read-out: IC50 μM Kinases GSK3, buffer A, 30° C., 15 μM ATP
# DYRK1A = DYRK1A (Homo sapiens, UniProt Q13627); test: DYRK1A kinase inhibition (Woodtide substrate)
Compound,IC50 (CDK5/D25) [µM],melting point [°C],IC50 (GSK-3αβ) [µM],IC50 (DYRK1A) [µM],IC50 (Huh7 (liver)) [µM],IC50 (Caco (colon)) [µM],IC50 (MDA-MB 231 (breast)) [µM],IC50 (HCT 116 (colon)) [µM],IC50 (PC3 (prostate)) [µM],IC50 (NCI (lung)) [µM],IC50 (fibroblast) [µM]
"O=C1c2cccc(NC(=S)Nc3cc[nH]n3)c2C2CCCCN12 (stereo not drawn) [Compound 64, 1-(6-Oxo-1,2,3,4,6,10b-hexahydropyrido[2,1-a]isoindol-10-yl)-3-(1H-pyrazol-3-yl)thiourea]",56,208,16,≥ 100,8,20,25,20,6,25,> 25
"O=C1c2cccc(NC(=S)Nc3ncccc3Br)c2C2CC3(CCN12)SCCS3 (stereo not drawn) [Compound 74, 1-(3-Bromopyridin-2-yl)-3-(6′-oxo-3′,4′,6′,10b′-tetrahydro-1′H-spiro[[1,3]dithiolane-2,2′-pyrido[2,1-a]isoindole]-10′-yl)thiourea]",> 10,215,3,> 10,10,20,> 25,25,15,12,25
"O=C(Nc1ccc(Br)cn1)Nc1cccc2c1C1CC3(CCN1C2=O)SCCS3 (stereo not drawn) [Compound 31, 1-(5-Bromopyridin-2-yl)-3-(6′-oxo-3′,4′,6′,10b′-tetrahydro-1′H-spiro[[1,3]dithiolane-2,2′-pyrido[2,1-a]isoindole]-10′-yl)urea]",7.3,240,0.068,≥ 10,0.8,5,4,1.2,3,1.5,8
"COC1CCN2C(=O)c3cccc(NC(=O)Nc4cc(C)ccn4)c3C2C1 (stereo not drawn) [Compound 58, 1-(2-methoxy-6-oxo-1,2,3,4,6,10b-hexahydropyrido[2,1-a]isoindol-10-yl)-3-(4-methylpyridin-2-yl)urea]",0.32,,0.032,> 10,0.1,0.5,0.3,0.03,0.4,0.4,0.5
"O=C1c2cccc(NC(=S)Nc3cc[nH]n3)c2C2CC3(CCN12)SCCS3 (stereo not drawn) [Compound 71, 1-(6′-Oxo-3′,4′,6′,10b′-tetrahydro-1′H-spiro[[1,3]dithiolane-2,2′-pyrido[2,1-a]isoindole]-10′-yl)-3-(1H-pyrazol-3-yl)thiourea]",> 10,185,> 10,> 10,20,15,15,7,> 25,15,25
"O=C1c2cccc(NC(=S)Nc3ncccn3)c2C2CCCCN12 (stereo not drawn) [Compound 65, 1-(6-Oxo-1,2,3,4,6,10b-hexahydropyrido[2,1-a]isoindol-10-yl)-3-(pyrimidin-2-yl)thiourea]",> 10,212,> 10,≥ 100,> 25,20,25,> 25,> 25,> 25,> 25
"O=C1c2cccc(NC(=S)Nc3ccccn3)c2C2CC3(CCN12)SCCS3 (stereo not drawn) [Compound 70, 1-(6′-Oxo-3′,4′,6′,10b′-tetrahydro-1′H-spiro[[1,3]dithiolane-2,2′-pyrido[2,1-a]isoindole]-10′-yl)-3-(pyridin-2-yl)thiourea]",19,142,2.5,22,15,2,3,2,> 25,10,20
"O=C(Nc1cccc2c1C1CCCCN1C2=O)Nc1ncccc1Br (stereo not drawn) [Compound 75, 1-(3-Bromopyridin-2-yl)-3-(6-oxo-1,2,3,4,6,10b-hexahydropyrido[2,1-a]isoindol-10-yl)urea]",0.48,220,0.17,3,0.25,5,1.5,0.4,7,2,0.6
"O=C1c2cccc(NC(=S)Nc3ccc(Br)cn3)c2C2CCCCN12 (stereo not drawn) [Compound 66, 1-(5-Bromopyridin-2-yl)-3-(6-oxo-1,2,3,4,6,10b-hexahydropyrido[2,1-a]isoindol-10-yl)thiourea]",8.7,,2.1,> 100,> 25,2,2,3,> 25,25,4
"COC1CCN2C(=O)c3cccc(NC(=O)Nc4cccc(C)n4)c3C2C1 (stereo not drawn) [Compound 56, 1-(2-Methoxy-6-oxo-1,2,3,4,6,10b-hexahydropyrido[2,1-a]isoindol-10-yl)-3-(6-methylpyri-din-2-yl)urea]",4.3,,0.32,> 10,3,6,7,3,6,10,7
"COC1CCN2C(=O)c3cccc(NC(=O)Nc4ccccn4)c3C2C1 (stereo not drawn) [Compound 53, 1-(2-Methoxy-6-oxo-1,2,3,4,6,10b-hexahydropyrido[2,1-a]isoindol-10-yl)-3-(pyridin-2-yl)urea]",0.55,,0.081,> 10,0.7,2.5,2,1,2,4,3

# The next lines start with results.
IC50 (CDK5/D25) [µM],melting point [°C],IC50 (GSK-3αβ) [µM],IC50 (DYRK1A) [µM],Compound,IC50 (Huh7 (liver)) [µM],IC50 (Caco (colon)) [µM],IC50 (MDA-MB 231 (breast)) [µM],IC50 (HCT 116 (colon)) [µM],IC50 (PC3 (prostate)) [µM],IC50 (NCI (lung)) [µM],IC50 (fibroblast) [µM]
8.1,195,4.5,92,"O=C1c2cccc(NC(=S)Nc3cccc(Br)n3)c2C2CCCCN12 (stereo not drawn) [Compound 67, 1-(6-Bromopyridin-2-yl)-3-(6-oxo-1,2,3,4,6,10b-hexahydropyrido[2,1-a]isoindol-10-yl)thiourea]",10,3,4,2,8,12,10
> 10,128,> 10,> 10,"O=C1c2cccc(NC(=S)Nc3cnccn3)c2C2CC3(CCN12)SCCS3 (stereo not drawn) [Compound 69, 1-(6′-Oxo-3′,4′,6′,10b′-tetrahydro-1′H-spiro[[1,3]dithiolane-2,2′-pyrido[2,1-a]isoindole]-10′-yl)-3-(pyrazin-2-yl)thiourea]",> 25,4,10,15,> 25,> 25,25
0.22,> 260,0.05,> 10,Cc1cnc(NC(=O)Nc2cccc3c2C2CC4(CCN2C3=O)SCCS4)cn1 (stereo not drawn) [Compound 51],0.3,0.5,0.4,0.2,0.4,0.8,8
3.1,> 260,0.61,> 10,Cc1cccnc1NC(=O)Nc1cccc2c1C1CC3(CCN1C2=O)OCCO3 (stereo not drawn) [Compound 45],> 25,> 25,> 25,25,> 25,> 25,> 25
> 10,,4,> 10,COc1cc(NC(=O)Nc2cccc3c2C2CC4(CCN2C3=O)SCCS4)nc2ccccc12 (stereo not drawn) [Compound 49],5,15,20,10,15,10,25
